# Assay results: patent US20210169985A1, “METHODS FOR TREATING GRAM POSITIVE BACTERIAL INFECTION” (INSERM (Institut National de la Santé et de la Recherche …, priority 2018, published 2021)
# Entries after “also recorded” stand apart in the source; their conditions may differ. *1 amine or outer side, *2 acyl side, *3 side chain or, on linkers, in order; H or OH if unused. Where a SMILES comes first, the peptide text is derived from it. Bridges are numbered along the chain shown (N, C = ends). Roman numbers before positions name the chains, in order. [ ]: non-standard residue; d: D form. Actinocin(9to1) = Cc1c2oc3c(C)ccc(C(=O)[*:1])c3nc-2c(C(=O)[*:2])c(N)c1=O; NMeV = CN[C@H](C(=O)O)C(C)C; Sar = CNCC(=O)O
# B1: CXCL1: rCXCL1 (R&D system, 1395-KC-025/CF), key neutrophil chemokine (protein, UniProt P12850 25-96, looked up)
# Growth-regulated alpha protein: APIANELRCQCLQTMAGIHLKNIQSLKVLPSGPHCTQTEVIATLKNGREACLDPEAPLVQKIVQKMLKGVPK
# What was measured:
# [1] = tested on: CXCL1 production in keratinocytes; assay: Cytokine quantification in supernatant of murine primary keratinocytes; type: cell-based; conditions: for effect of inhibitor on hepcidin-induced CXCL1 production: murine primary keratinocytes with 3.6 μM hepcidin, inhibitor added 30 minutes before (FIG. 2C); for CXCL1 production by keratinocytes: stimulated 1 or 3 hours vs PBS; for CXCL1 levels in the cell culture supernatant: 3 hours
# Experimental: Keratinocytes were isolated from the skin of 2-day-old WT or Hepc^Δkerat mice, based on modifications from a previously described protocol^8. In brief, dermis were easily separated from epidermis after floating newborn mice skin on freshly thawed cold trypsin 0.25% (thermo fisher 15050065) overnight at 4° C. with the dermis side down. Cells were isolated in stop trypsin medium (DMEM, high glucose, no glutamine, no calcium (thermo fisher 21068028) containing 20% heat inactivated and Chelex (Bio rad 1421253) treated—FBS, 1% GlutaMAXSupplement (thermo fisher 35050061), 1% Sodium Pyruvate (thermo fisher 11360070), 100 U/ml Penicillin, 100 μg/ml Streptomycin (thermo fisher), 2.5 μg/ml Amphotericin B (Gibco)).
# Keratinocytes were obtained by epidermis mechanical dissociation through shaking at 350 rpm for 1 hour at 37° C. The resulting cell suspension was filtered through 100 μm filter, centrifuged at 250 g for 10 min at 4° C., plated on fibronectin and bovine collagen I coated tissue culture plate and incubated at 37° C. in a humidified 5% CO2 atmosphere. The cells were cultured in 0.07 mM calcium medium (low Ca^2+) containing EGF (10 ng/ml) and cholera toxin (10^−10 mol/L). Once confluence reached, cells were switched in 1.2 mM calcium medium (high Ca^2+) in order to assure their differentiation. After three days in high Ca′ cells were differentiated and suitable for different experiments.
# (§1) Keratinocytes, previously starved of FBS for 1 hour, were treated with 1 or 10 μg/ml hepcidin (Peptide International) and incubated for different time points. In some experiments, inhibitors were added 30 minutes before hepcidin treatment during FBS starving: brefaldin A (sigma B7651), cycloheximide (sigma C7698), actinomycinD (sigma A1410). The cells were lysed with Tri reagent (sigma) while supernatant cytokines were measured with the V-PLEX Proinflammatory Panel1 kit (Meso Scale Discovery), according to the manufacturer's instruction.
# GAS NZ131 [2] = assay: GAS growth inhibition (bacteriostatic) assay; type: cell-based, Group A Streptococcus; conditions: in vitro, overnight growth, hepcidin and LL-37 at the same concentration (FIG. 3A)
# Experimental: (§2) As previously described, 9 GAS NZ131 were grown in Todd Hewitt Broth (THB, Sigma) plus 0.3% yeast extract to early log phase (absorbance at 600 nm, A600=0,2). Bacteria were then diluted in THB to A600=0,001 (≈2×10^5 colony forming units (c.f.u.) m1-1). This bacterial suspension was kept growing overnight at 37° C. in presence of PBS, LL-37, hepcidin (peptide international) or penicillin G (sigma P7794). For antimicrobial killing kinetics, exponential phase GAS (A600=0,4) was exposed to PBS or LL-37 or hepcidin and incubated at 37° C. At different time point serial dilutions of these bacterial suspensions were plated on THA plate for counting surviving c.f.u.
# GAS NZ131 [3] = assay: GAS antimicrobial killing kinetics (bactericidal) assay; type: cell-based, Group A Streptococcus; conditions: added to the culture medium at 4 μg/ml (FIG. 3B; legend says 32 μM)
# Experimental: as §2
# GAS [4] = assay: Therapeutic treatment in GAS induced necrotizing soft tissue infection model; type: in vivo, C57BL6 mice
# Experimental: (§3) A well-established model of necrotizing soft tissue infection was adapted for this study (^7,^9). In brief, 100 μl of a mid logarithmic growth phase (approximately 10^7 c.f.u.) of GAS was mixed with an equal volume of sterile Cytodex beads (Sigma-Aldrich) and injected subcutaneously into the flank of 8- to 12-week-old WT and Hepc^Δkerat14 male littermates, previously shaved (veet hair removal cream). Weight loss and lesion size of mice were daily estimated. After 96 hours mice were sacrificed, skin necrotic ulcers, spleen, and blood (via retro orbital bleeding) were recovered and homogenized in 1:2 mg/μl of sterile PBS. Serial dilutions of tissue homogenate were stretched on THA plates, in order to enumerate living c.f.u.
# For therapeutic treatment C57BL6 mice were infected as described above. One day after infection, animals were subcutaneously injected with PBS (control) or 1 μg of hepcidin (peptide international). Mice were treated again at 48 and 72 hours with 500 ng of hepc-25. After 96 hours mice were sacrificed, spleens were taken, homogenized for c.f.u. enumeration.
# CXCL1 mRNA = CXCL1 mRNA expression by Q-PCR in primary keratinocytes; type: cell-based, murine; conditions: WT primary keratinocytes, 1 and 3 hours, 360 nM or 3.6 μM (FIG. 2B)
# Experimental: RNA extraction, reverse transcription and quantitative PCR have been performed as previously described {Zumerle, 2014 #46}. All samples were normalized to the threshold cycle value for cyclophilin-A.
# as §1
# GAS [5] = assay: CXCL1 rescue experiment in GAS-infected Hepc Δkerat mice; type: in vivo; conditions: subcutaneous 1 μg/mouse daily, four days after GAS injection
# Experimental: as §3
# For rescue experiment WT and Hepc^Δkerat littermates were subcutaneously infected with 10^7 c.f.u. of GAS with mock or 1 μg/mouse of rCXCL1 (R&D system, 1395-KC-025/CF). Mice were intralesionally injected again at 24, 48 and 72 h with mock or 1 μg of rCXCL1.
molecule,measurement,setting,value
"Cc1c2oc3c(C)ccc(C(=O)N[C@@H]4C(=O)N[C@H](C(C)C)C(=O)N5CCC[C@H]5C(=O)N(C)CC(=O)N(C)[C@@H](C(C)C)C(=O)O[C@@H]4C)c3nc-2c(C(=O)N[C@@H]2C(=O)N[C@H](C(C)C)C(=O)N3CCC[C@H]3C(=O)N(C)CC(=O)N(C)[C@@H](C(C)C)C(=O)O[C@@H]2C)c(N)c1=O [actinomycin D, actinomycinD, reference compound] (I: T[dV]P[Sar][NMeV] / II: T[dV]P[Sar][NMeV]; ester I:1-I:C, II:1-II:C; linker I:N-II:N via Actinocin(9to1))",effect of inhibitor on hepcidin-induced CXCL1 production,[1],not
LL-37 [reference compound],bacteriostatic effect against GAS (inhibition of GAS growth),GAS NZ131 [2],able to prevent the growth of the bacteria
same,bactericidal activity against GAS (bacterial titers vs control),GAS NZ131 [3],significant reduction in bacterial titers
"C[C@@H]1C[C@@H]([C@H](O)CC2CC(=O)NC(=O)C2)C(=O)[C@@H](C)C1 [Cycloheximide, cycloheximide, reference compound]",effect of inhibitor on hepcidin-induced CXCL1 production,[1],significantly reduced
"mini-hepcidin: murine mini-hepcidin consisting in the 9 N-terminal amino acids of hepcidin (DTNFPICIF; Hepcidin; UniProt Q9EQ21 59-67, looked up, fragment) [reference compound]",CXCL1 production by keratinocytes,[1]; murine primary keratinocytes,not able to trigger CXCL1 production
same,CXCL1 production by keratinocytes,"[1]; murine primary keratinocytes, listed as Mini-hepcidin",does bot promote CXCL1 production
"hepcidin: mature 25-amino acid form of hepcidin (hepc-25), obtained from Peptide International",production of other tested inflammatory cytokines,"[1]; murine primary keratinocytes, 360 nM and 3.6 μM hepcidin",not
same,CXCL1 levels in the cell culture supernatant,"[1]; murine primary keratinocytes, 360 nM",150 pg/mL
same,CXCL1 levels in the cell culture supernatant,"[1]; murine primary keratinocytes, 3.6 μM",50 pg/mL
same,CXCL1 production by keratinocytes,[1]; murine primary keratinocytes,dose dependent increase
same,treated mice with no systemic bacterial dissemination (bacteria in the spleen),"GAS [4]; GAS-infected mice, 96 hours after infection, all control mice disseminated",7 out of 9
same,weight (marker of morbidity),"GAS [4]; GAS-infected mice, sc 1 μg at 24 h then 500 ng at 48 and 72 h, 96 hours, vs mock",did not loose weight
same,"signs of morbidity (rough hair coat, hunched posture)","GAS [4]; GAS-infected mice, sc 1 μg at 24 h then 500 ng at 48 and 72 h, vs mock",didn't present any signs of morbidity
same,systemic spread of infection,GAS [4]; local injection at the site of infection (FIG. 2F),prevents systemic spread of infection
same,bacteriostatic effect against GAS (inhibition of GAS growth),GAS NZ131 [2],no antimicrobial activity; also recorded: no direct bacteriostatic effect
same,CXCL1 expression at the mRNA level,CXCL1 mRNA,did not increase
same,bactericidal activity against GAS (bacterial titers vs control),GAS NZ131 [3],no effect
B1,number of bacteria in skin of Hepc Δkerat mice,GAS [5],decreased the number of bacteria at the level of WT mice
